Some test systems named below: CCRF-CEM leukemia; HCC-2998 colon; HCT-116 colon; HL-60(TB) leukemia; M14 melanoma; MALME-3M melanoma; MDA-MB-231 breast; MOLT-4 leukemia; OVCAR-3 ovarian; SK-OV-3 ovarian; T-47D breast; UO-31 renal.
Common to all, as to assay: DTP human tumour cell line panel, 48 h

Several values for one entry are separate records, joined by “and”; a condition that tells them apart may be missing. Equal entries are not always repeated.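 The compound was tested at five concentrations on cells cultured in 96-well plates, with a 48-hour exposure period. Here, GI50 denotes the concentration required for 50% inhibition of growth. TGI: concentration producing complete growth inhibition.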 Bounds are passed on as bounds.

By TGI is commonly meant the concentration at which net growth stops. A high value points to lower sensitivity of the cells. For the compound `C/C=C/OC1C(C2COC(C)(C)O2)OC2OC(C)(C)OC21` (stereo not drawn), the TGI with CCRF-CEM leukemia, in the experiment on HCC-2998 colon, in the experiment on HCT-116 colon, with HL-60(TB) leukemia, with M14 melanoma and in the experiment with MALME-3M melanoma was above 100 µM throughout. Besides, the TGI in the experiment on MDA-MB-231 breast, in the experiment on MOLT-4 leukemia, in the experiment with OVCAR-3 ovarian, with SK-OV-3 ovarian, with T-47D breast and in the experiment on UO-31 renal was above 100 µM throughout.

Consider `CNC=O`, for which the TGI in the experiment on CCRF-CEM leukemia was above 10000 µM; with HCC-2998 colon it was below 3980 µM; in the experiment with HCT-116 colon, above 10000 µM; in the experiment on HL-60(TB) leukemia it was above 10000 µM; with M14 melanoma it was above 10000 µM; in the experiment with MALME-3M melanoma, above 10000 µM. The TGI in the experiment on MDA-MB-231 breast was above 10000 µM; in the experiment with MOLT-4 leukemia, above 10000 µM; in the experiment with OVCAR-3 ovarian it was above 10000 µM; in the experiment with SK-OV-3 ovarian, below 3980 µM; in the experiment on T-47D breast, above 10000 µM; with UO-31 renal, above 10000 µM.

As usually defined, the GI50 is the concentration that inhibits growth by half. For `O=[N+]([O-])c1cccc2nc3ccccc3c(NCCNCCO)c12`, the TGI was 0.101 µM and 0.0455 µM with CCRF-CEM leukemia; 0.0101 µM with HCC-2998 colon; 0.107 µM with HCT-116 colon; 0.109 µM with HL-60(TB) leukemia; 0.0236 µM and 0.0101 µM in the experiment with M14 melanoma; 0.0216 µM and 0.0317 µM with MALME-3M melanoma. The TGI in the experiment with MDA-MB-231 breast was 0.0668 µM and 0.0816 µM; in the experiment on MOLT-4 leukemia, 0.0891 µM and 0.0113 µM; with OVCAR-3 ovarian it was 0.0268 µM and 0.0556 µM; with SK-OV-3 ovarian, 0.293 µM and 0.377 µM; in the experiment with T-47D breast, 0.101 µM and 0.0533 µM; in the experiment with UO-31 renal it was 0.392 µM and 0.192 µM. The values for the GI50 with OVCAR-3 ovarian and in the experiment on UO-31 renal were 0.0114 µM and 0.0448 µM, respectively.

On to `CC(=O)NC1CCC(NC(=O)OC(C)(C)C)C(NC(=O)OC(C)(C)C)C1` (stereo not drawn), for which the TGI in the experiment with CCRF-CEM leukemia, with HCC-2998 colon, in the experiment with HCT-116 colon, in the experiment with HL-60(TB) leukemia, with M14 melanoma and in the experiment with MALME-3M melanoma was above 100 µM each time. Besides, the TGI in the experiment on MDA-MB-231 breast, in the experiment with MOLT-4 leukemia, in the experiment with OVCAR-3 ovarian, with SK-OV-3 ovarian, with T-47D breast and with UO-31 renal was above 100 µM each time.

Consider `NNC(=O)CCCCCCCC(=O)O`, for which the TGI in the experiment on CCRF-CEM leukemia, with HCC-2998 colon, with HCT-116 colon, with HL-60(TB) leukemia, with M14 melanoma and in the experiment with MALME-3M melanoma was above 100 µM in each case. Further, the TGI in the experiment with MDA-MB-231 breast, in the experiment with MOLT-4 leukemia, with OVCAR-3 ovarian, in the experiment with SK-OV-3 ovarian, in the experiment with T-47D breast and in the experiment on UO-31 renal was above 100 µM throughout.

For the compound `N#C[C@](CO)(NC(=O)OCc1ccccc1)C(F)F`, the TGI in the experiment on CCRF-CEM leukemia, in the experiment on HCC-2998 colon, in the experiment on HCT-116 colon, in the experiment with HL-60(TB) leukemia, in the experiment on M14 melanoma and with MALME-3M melanoma was above 100 µM throughout. Besides, the TGI with MDA-MB-231 breast, with MOLT-4 leukemia, in the experiment with OVCAR-3 ovarian, in the experiment on SK-OV-3 ovarian, in the experiment with T-47D breast and in the experiment with UO-31 renal was above 100 µM throughout.

With `Cc1ccnc2c1c(=O)c1ccccc1n2C`, the TGI in the experiment on CCRF-CEM leukemia, with HCC-2998 colon, in the experiment on HCT-116 colon, with HL-60(TB) leukemia, with M14 melanoma and in the experiment on MALME-3M melanoma was above 100 µM throughout. In addition, the TGI with MDA-MB-231 breast was above 100 µM; in the experiment with MOLT-4 leukemia, 73.8 µM; with OVCAR-3 ovarian, above 100 µM; in the experiment with SK-OV-3 ovarian it was above 100 µM; in the experiment on T-47D breast, above 100 µM; with UO-31 renal, 36.5 µM.

For the compound `O=S(=O)(NC(c1ccccc1)(c1cc2ccccc2[nH]1)c1cc2ccccc2n1S(=O)(=O)c1ccccc1)c1ccccc1` (stereo not drawn), the concentration for total growth inhibition (TGI) in the experiment on CCRF-CEM leukemia, in the experiment with HCC-2998 colon, in the experiment with HCT-116 colon, in the experiment on HL-60(TB) leukemia, in the experiment on M14 melanoma and in the experiment with MALME-3M melanoma was above 100 µM each time. Moreover, the TGI in the experiment with MDA-MB-231 breast is above 100 µM; with MOLT-4 leukemia, above 100 µM; in the experiment on OVCAR-3 ovarian, above 100 µM; in the experiment on SK-OV-3 ovarian, 92.4 µM; in the experiment on T-47D breast, above 100 µM; with UO-31 renal it was above 100 µM.

For the origin of these results see PubChem BioAssay (NCI).
